pIC50: −log10 of the molar value.
Legend:
[1] = biological target: T1, prostate specific membrane antigen (PSMA) (Homo sapiens, UniProt Q04609); assay: radioligand uptake in LNCaP (PSMA-high) cells, competition by unlabeled PSMA-617; PC3 (PSMA-low) as control; assay type: cell-based
T1 construct: gene FOLH1

[2] = biological target: T1, prostate specific membrane antigen (PSMA); assay: radioligand uptake in LNCaP (PSMA-high) cells, competition by unlabeled compound; PC3 (PSMA-low) as control; assay type: cell-based

T1 sequence (Q04609 whole entry): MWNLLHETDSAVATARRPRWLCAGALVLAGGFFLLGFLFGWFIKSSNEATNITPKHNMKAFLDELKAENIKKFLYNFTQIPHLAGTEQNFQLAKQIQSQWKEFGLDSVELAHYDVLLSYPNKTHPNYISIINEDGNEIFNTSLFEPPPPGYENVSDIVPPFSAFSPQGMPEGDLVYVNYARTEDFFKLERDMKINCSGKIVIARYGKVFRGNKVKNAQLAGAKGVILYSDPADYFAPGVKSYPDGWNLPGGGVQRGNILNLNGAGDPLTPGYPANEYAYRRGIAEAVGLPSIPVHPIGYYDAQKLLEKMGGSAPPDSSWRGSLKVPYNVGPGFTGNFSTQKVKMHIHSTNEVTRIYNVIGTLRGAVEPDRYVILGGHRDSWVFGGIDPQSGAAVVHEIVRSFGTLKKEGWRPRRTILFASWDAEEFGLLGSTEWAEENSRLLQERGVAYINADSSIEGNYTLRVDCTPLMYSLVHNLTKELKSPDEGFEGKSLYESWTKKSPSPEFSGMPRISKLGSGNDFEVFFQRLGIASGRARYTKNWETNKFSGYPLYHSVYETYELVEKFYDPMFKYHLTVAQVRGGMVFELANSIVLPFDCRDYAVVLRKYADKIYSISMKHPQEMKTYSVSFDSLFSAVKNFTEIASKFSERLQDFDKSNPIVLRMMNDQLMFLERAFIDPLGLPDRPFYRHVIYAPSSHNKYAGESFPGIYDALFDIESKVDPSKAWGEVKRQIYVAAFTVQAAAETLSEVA

Compound | pIC50 [1] | pIC50 [2]
O=C([O-])CN1CCN(CC(=O)[O-])CCN(CC(=O)NCC2CCC(C(=O)NC(Cc3ccc4ccccc4c3)C(=O)NCCCC[C@H](NC(=O)N[C@@H](CCC(=O)O)C(=O)O)C(=O)O)CC2)CCN(CC(=O)[O-])CC1.[225Ac+3] (some centres unmarked) [225Ac-PSMA-617] | 8.58 | 
O=C(O)CC[C@H](NC(=O)N[C@@H](CCCCNC(=O)[C@@H](Cc1ccc2ccccc2c1)NC(=O)c1ccc(CNC(=O)[C@@H](CCC(=O)O)NC(=O)[C@@H](CCC(=O)O)NC(=O)Cc2ccc([211At])cc2)cc1)C(=O)O)C(=O)O [211At-PSMA-5] |  | 9.49

Reference: paper PMC10815831, “Comparison of Nuclear Medicine Therapeutics Targeting PSMA among Alpha-Emitting Nuclides” (International Journal of Molecular Sciences, 2024)
